Like-named read-outs stand apart in the source and are kept apart here.
Experiments:
[1] = tested on: MDR strains (2638, 3072, and 24530) of P. aeruginosa; experiment: Growth inhibition by F127-(DFO-Ga)2/ERY, MDR strains; assay type: cell-based, Pseudomonas aeruginosa; conditions: 244 μM F127-(DFO-Ga)2 and/or 50 μg/mL ERY
Protocol: At time points of 0, 1, 2, and 4 hours, a small aliquot was removed from the broth culture, logarithmically diluted in M9 salts, and then spread onto cation-adjusted Mueller-Hinton agar plates. After overnight incubation at 37° C., colonies were counted and the number of CFU/mL was calculated.

[2] = tested on: P. aeruginosa reference strains (ATCC 27853 and PAO1); experiment: Dose response of growth (OD600) to F127-(DFO-Ga)2/ERY; assay type: cell-based, Pseudomonas aeruginosa; conditions: 50 μg/mL ERY alone
[3] = tested on: P. aeruginosa MDR strain 24530; experiment: Disk diffusion, zones of inhibition; assay type: cell-based, Pseudomonas aeruginosa
Protocol: (§1) Single colonies were grown in MHB to match a 0.5 McFarland standard. A sterile cotton swab was dipped into the various MDR strain inoculums and spread evenly over the surface of the agar plates. Purchased antibiotic-containing disks at fixed concentrations (Table 4) were placed on the surface of each plate and incubated overnight at 37° C. Zones of inhibition were measured the following morning. Measurements included the diameter (d) of the antibiotic disk (6 mm) and are reported in terms of diameters and areas. […] Typically for diameters, R<10, I 11-15, and S>15 where R=resistance, I=intermediate resistance, and S=susceptible.

P. aeruginosa PAO1 [4] = experiment: Disk diffusion, zones of inhibition; assay type: cell-based, Pseudomonas aeruginosa
Protocol: as §1

[5] = tested on: P. aeruginosa MDR strain 3072; experiment: Disk diffusion, zones of inhibition; assay type: cell-based, Pseudomonas aeruginosa
Protocol: as §1

P. aeruginosa ATCC 27853 [6] = experiment: Disk diffusion, zones of inhibition; assay type: cell-based, Pseudomonas aeruginosa; conditions: for zone of inhibition, A: same disks and plates
Protocol: as §1

P. aeruginosa MDR 24530 = experiment: Broth microdilution MIC / FICI; assay type: cell-based; conditions: Pseudomonas aeruginosa, MDR24530
Protocol: (§2) Antimicrobial efficacy was assessed by the broth microdilution assay in accordance with NCCLS guidelines (Coyle, Marie B. Manual of antimicrobial susceptibility testing. American Society for Microbiology, 2005). Organisms were grown overnight on non-selective MHA medium in order to obtain single colonies. Three to five morphologically distinct colonies were touched with a sterile pipet tip and transferred to a culture tube containing MHB (4 mL), and the broth culture was incubated at 37° C. until its turbidity matched a 0.5 McFarland Standard. The inoculum was then diluted 1:20 in sterile water, followed by a 1:10 dilution when inoculating wells of a 96-well plate. […] For combinations, the fractional inhibitory concentration index (FICI) was calculated using the following equation: […]

P. aeruginosa MDR 2638 = experiment: Broth microdilution MIC / FICI; assay type: cell-based; conditions: Pseudomonas aeruginosa, MDR2638
Protocol: as §2

P. aeruginosa MDR 3072 = experiment: Broth microdilution MIC / FICI; assay type: cell-based; conditions: Pseudomonas aeruginosa, MDR3072
Protocol: as §2

E. coli ATCC 25922 = experiment: Broth microdilution MIC / FICI; assay type: cell-based; conditions: Escherichia coli, ATCC25922
Protocol: (§3) Antimicrobial efficacy was assessed by the broth microdilution assay in accordance with NCCLS guidelines (Coyle, Marie B. Manual of antimicrobial susceptibility testing. American Society for Microbiology, 2005). Organisms were grown overnight on non-selective MHA medium in order to obtain single colonies. Three to five morphologically distinct colonies were touched with a sterile pipet tip and transferred to a culture tube containing MHB (4 mL), and the broth culture was incubated at 37° C. until its turbidity matched a 0.5 McFarland Standard. The inoculum was then diluted 1:20 in sterile water, followed by a 1:10 dilution when inoculating wells of a 96-well plate. […] For combinations, the fractional inhibitory concentration index (FICI) was calculated using the following equation: [formula]

P. aeruginosa PAO1 [7] = experiment: Broth microdilution MIC / FICI; assay type: cell-based; conditions: Pseudomonas aeruginosa
Protocol: as §3

P. aeruginosa ATCC 27853 [8] = experiment: Broth microdilution MIC / FICI; assay type: cell-based; conditions: Pseudomonas aeruginosa, ATCC27853
Protocol: as §3

[9] = Pseudomonas aeruginosa, 24530, disks NVB 30 μg, ERY 15 μg, RIF 5 μg, VAN 30 μg, MHA with or without 256 μM DG-F125, includes 6 mm disk, read-out: zone of inhibition, d
[10] = Pseudomonas aeruginosa, PAO1, disks NVB 30 μg, ERY 15 μg, RIF 5 μg, VAN 30 μg, MHA with or without 256 μM DG-F125, includes 6 mm disk, read-out: zone of inhibition, d
[11] = Pseudomonas aeruginosa, 3072, disks NVB 30 μg, ERY 15 μg, RIF 5 μg, VAN 30 μg, MHA with or without 256 μM DG-F125, includes 6 mm disk, read-out: zone of inhibition, d
[12] = Pseudomonas aeruginosa, ATCC27853, 27853, disks NVB 30 μg, ERY 15 μg, RIF 5 μg, VAN 30 μg, MHA with or without 256 μM DG-F125, includes 6 mm disk, read-out: zone of inhibition, d
[13] = E. coli ATCC 25922, Example 9, read-out: MIC (Table 7, agent alone)
[14] = E. coli ATCC 25922, antibiotic alone, Table 3, read-out: MIC
[15] = P. aeruginosa PAO1, Example 9, read-out: MIC (Table 7, agent alone)
[16] = P. aeruginosa ATCC 27853, Example 9, read-out: MIC (Table 7, agent alone)
[17] = MDR 24530, antibiotic alone, read-out: MIC
[18] = MDR 2638, antibiotic alone, read-out: MIC
[19] = MDR 3072, antibiotic alone, read-out: MIC
[20] = PAO1, antibiotic alone, Table 3, read-out: MIC
[21] = Pseudomonas aeruginosa, read-out: zone of inhibition, d

SMILES | zone of inhibition, A ([3]; 24530, same disks and plates) [mm^2] | zone of inhibition, A (P. aeruginosa PAO1 [4]; PAO1, same disks and plates) [mm^2] | zone of inhibition, A ([5]; 3072, same disks and plates) [mm^2] | zone of inhibition, A (P. aeruginosa ATCC 27853 [6]; 27853) [mm^2] | MIC (P. aeruginosa MDR 24530) [µg/mL] | MIC (P. aeruginosa MDR 2638) [µg/mL] | MIC (P. aeruginosa MDR 3072) [µg/mL] | MIC (E. coli ATCC 25922; [13]) [µg/mL] | MIC (E. coli ATCC 25922; [14]) [µg/mL] | MIC (P. aeruginosa PAO1 [7]; PAO1) [µg/mL] | MIC (P. aeruginosa PAO1 [7]; [15]) [µg/mL] | MIC (P. aeruginosa ATCC 27853 [8]) [µg/mL] | MIC (P. aeruginosa ATCC 27853 [8]; [16]) [µg/mL] | MIC (P. aeruginosa MDR 24530; [17]) [µg/mL] | MIC (P. aeruginosa MDR 2638; [18]) [µg/mL] | MIC (P. aeruginosa MDR 3072; [19]) [µg/mL] | MIC (P. aeruginosa PAO1 [7]; [20]) [µg/mL] | other results
CC[C@H]1OC(=O)[C@H](C)[C@@H](O[C@H]2C[C@@](C)(OC)[C@@H](O)[C@H](C)O2)[C@H](C)[C@@H](O[C@@H]2O[C@H](C)C[C@H](N(C)C)[C@H]2O)[C@](C)(O)C[C@@H](C)C(=O)[C@H](C)[C@@H](O)[C@]1(C)O [ERY, erythromycin] | 0 | 64 | 0 | 95 | 512 | 512 | 512 | 32 | 32 | 256 | > 128 | 256 | > 128 | – | – | – | – | bacterial growth [1]: similarly ineffective; reduction in the OD600 compared to the positive control [2]: approximately 40%; A of region where some growth is still visible (in parentheses) ([3]; 24530, same disks and plates): (133) mm^2; d of region where some growth is still visible (in parentheses) ([3]; 24530, same disks and plates): (13) mm; zone of inhibition at 15 µg/disc [3, 9]: 0 mm; zone of inhibition at 15 µg/disc (P. aeruginosa PAO1 [4]; [10]): 9 mm; A of region where some growth is still visible (in parentheses) ([5]; 3072, same disks and plates): (283) mm^2; d of region where some growth is still visible (in parentheses) ([5]; 3072, same disks and plates): (19) mm; zone of inhibition at 15 µg/disc [5, 11]: 0 mm; zone of inhibition at 15 µg/disc (P. aeruginosa ATCC 27853 [6]; [12]): 11 mm
CO[C@@H]1[C@@H](OC(N)=O)[C@@H](O)[C@H](Oc2ccc3c(O)c(NC(=O)c4ccc(O)c(CC=C(C)C)c4)c(=O)oc3c2C)OC1(C)C [NVB, novobiocin sodium] | 0 | 0 | 0 | 44 | – | – | – | 48 | 32 | – | > 128 | 128 | > 128 | > 512 | > 512 | > 512 | > 512 | zone of inhibition at 30 µg/disc [3, 9]: 0 mm; zone of inhibition at 30 µg/disc (P. aeruginosa PAO1 [4]; [10]): 0 mm; zone of inhibition at 30 µg/disc [5, 11]: 0 mm; zone of inhibition at 30 µg/disc (P. aeruginosa ATCC 27853 [6]; [12]): 7.5 mm
CO[C@H]1/C=C/O[C@@]2(C)Oc3c(C)c(O)c4c(O)c(c(/C=N/N5CCN(C)CC5)c(O)c4c3C2=O)NC(=O)/C(C)=C\C=C\[C@H](C)[C@H](O)[C@@H](C)[C@@H](O)[C@@H](C)[C@H](OC(C)=O)[C@@H]1C [RIF, rifampicin] | 0 | 33 | 0 | 0 | – | – | – | – | 4 | – | – | – | – | 16 | 8 | 16 | 16 | zone of inhibition at 5 µg/disc [3, 9]: 0 mm; zone of inhibition at 5 µg/disc (P. aeruginosa PAO1 [4]; [10]): 6.5 mm; zone of inhibition at 5 µg/disc [5, 11]: 0 mm; zone of inhibition at 5 µg/disc (P. aeruginosa ATCC 27853 [6]; [12]): 0 mm; MIC (P. aeruginosa ATCC 27853 [8]; ATCC 27853, antibiotic alone, Table 3, read-out: MIC): 16 µg/mL
CN[C@H](CC(C)C)C(=O)N[C@H]1C(=O)N[C@@H](CC(N)=O)C(=O)N[C@H]2C(=O)N[C@H]3C(=O)N[C@H](C(=O)N[C@H](C(=O)O)c4cc(O)cc(O)c4-c4cc3ccc4O)[C@H](O)c3ccc(c(Cl)c3)Oc3cc2cc(c3O[C@@H]2O[C@H](CO)[C@@H](O)[C@H](O)[C@H]2O[C@H]2C[C@](C)(N)[C@H](O)[C@H](C)O2)Oc2ccc(cc2Cl)[C@H]1O [VAN, vancomycin] | 0 | 0 | 0 | 0 | 1020 | 512 | > 1020 | – | – | > 1020 | – | > 1020 | – | – | – | – | – | zone of inhibition at 30 µg/disc [3, 21]: 0 mm; A of region where some growth is still visible (in parentheses) (P. aeruginosa PAO1 [4]; PAO1, same disks and plates): 64 mm^2; d of region where some growth is still visible (in parentheses) (P. aeruginosa PAO1 [4]; PAO1, same disks and plates): 9 mm; zone of inhibition at 30 µg/disc (P. aeruginosa PAO1 [4]; Pseudomonas aeruginosa, PAO1, read-out: zone of inhibition, d): 0 mm; zone of inhibition at 30 µg/disc [5, 21]: 0 mm; zone of inhibition at 30 µg/disc (P. aeruginosa ATCC 27853 [6]; Pseudomonas aeruginosa, ATCC27853, read-out: zone of inhibition, d): 0 mm; MIC (E. coli ATCC 25922): 128 µg/mL

Reference: patent publication US11147778B2, “Siderophore-polymer conjugates for increasing bacterial sensitivity to antibiotics” (Wisconsin Alumni Research Foundation, priority 2016, dated 2021)
